Earlier results on 3 molecules are cited in PubChem BioAssay AID1259409 (Chemical Carcinogenesis Research Information System (CCRIS), 2018).

The series has as its system rodent chemically induced tumor inhibition, incidence and multiplicity. The experiment in a line: CCRIS tumor inhibitor studies. As to conditions: Dose [Inhibitor]: 0, Promoter: NONE USED.

Regarding `NC(=S)S`, the “tumour outcome (control, treated, inhibition, significance)” value (Carcinogen: ETHYL CARBAMATE, 51-79-6, 0.25 MG/G IN 0.005 ML OF 0.9% SALINE ADMINISTERED 30 MIN PRIOR TO CARCINOGEN DOSE (STUDY DURATION: 26 WK), Route [Inhibitor]: INTRAPERITONEAL, Species: MOUSE, Strain/Sex: STRAIN-A/FEMALE, Target Tissue: Type of Lesion: LUNG: ADENOMA, Dose [Carcinogen]: 0.5 MG/G ONCE) is reported as 100%, 100%, 0%, not calculated; the “tumour outcome (control, treated, inhibition, significance)” value (Carcinogen: ETHYL CARBAMATE, 51-79-6, 0.25 MG/G IN 0.005 ML OF 0.9% SALINE FIRST DOSE ADMINISTERED 30 MIN PRIOR TO CARCINOGEN DOSE FOLLOWED BY A SECOND DOS, Route [Inhibitor]: INTRAPERITONEAL, Species: MOUSE, Strain/Sex: STRAIN-A/FEMALE, Target Tissue: Type of Lesion: LUNG: ADENOMA, Dose [Carcinogen]: 0.25 MG/G ONCE) was 100%, 100%, 0%, not calculated; the “tumour outcome (control, treated, inhibition, significance)” value (Carcinogen: ETHYL CARBAMATE, 51-79-6, 0.25 MG/G IN 0.005 ML OF 0.9% SALINE FIRST DOSE ADMINISTERED 30 MIN PRIOR TO CARCINOGEN DOSE FOLLOWED BY A SECOND DOS, Route [Inhibitor]: INTRAPERITONEAL, Species: MOUSE, Strain/Sex: STRAIN-A/FEMALE, Target Tissue: Type of Lesion: LUNG: ADENOMA, Dose [Carcinogen]: 0.5 MG/G ONCE) is 100%, 100%, 0%, not calculated; the “tumour outcome (control, treated, inhibition, significance)” value (Carcinogen: ETHYL CARBAMATE, 51-79-6, 0.5 MG/G IN 0.01 ML OF 0.9% SALINE ADMINISTERED 30 MIN PRIOR TO CARCINOGEN DOSE (STUDY DURATION: 7 MO), Route [Inhibitor]: INTRAPERITONEAL, Species: MOUSE, Strain/Sex: B6C3F1/MALE, Target Tissue: Type of Lesion: LIVER: HEPATOMA, Dose [Carcinogen]: 0.5 MG/G ONCE) is recorded as 26/26 (100%), 31/31 (100%), 0%, not calculated; the “tumour outcome (control, treated, inhibition, significance)” value (Carcinogen: ETHYL CARBAMATE, 51-79-6, 0.5 MG/G IN 0.01 ML OF 0.9% SALINE ADMINISTERED 30 MIN PRIOR TO CARCINOGEN DOSE (STUDY DURATION: 8 MO), Route [Inhibitor]: INTRAPERITONEAL, Species: MOUSE, Strain/Sex: B6C3F1/MALE, Target Tissue: Type of Lesion: LIVER: HEPATOMA, Dose [Carcinogen]: 0.125 MG/G ONCE) is given as 24/24 (100%), 24/25 (96%), 4%, not calculated; the “tumour outcome (control, treated, inhibition, significance)” value (Carcinogen: ETHYL CARBAMATE, 51-79-6, 0.5 MG/G IN 0.01 ML OF 0.9% SALINE ADMINISTERED 30 MIN PRIOR TO CARCINOGEN DOSE (STUDY DURATION: 8 MO), Route [Inhibitor]: INTRAPERITONEAL, Species: MOUSE, Strain/Sex: B6C3F1/MALE, Target Tissue: Type of Lesion: LIVER: HEPATOMA, Dose [Carcinogen]: 0.25 MG/G ONCE) is 17/17 (100%), 28/29 (97%), 3%, not calculated. For the same molecule, the “tumour outcome (control, treated, inhibition, significance)” value by setting is: (Carcinogen: ETHYL CARBAMATE, 51-79-6, 0.5 MG/G IN 0.01 ML OF 0.9% SALINE ADMINISTERED 30 MIN PRIOR TO CARCINOGEN DOSE (STUDY DURATION: 12 MO), Route [Inhibitor]: INTRAPERITONEAL, Species: MOUSE, Strain/Sex: B6C3F1/FEMALE, Target Tissue: Type of Lesion: HARDERIAN GLAND: TUMOR, Dose [Carcinogen]: 0.5 MG/G ONCE) 40%, 15%, 62%, not calculated; (Carcinogen: ETHYL CARBAMATE, 51-79-6, 0.5 MG/G IN 0.01 ML OF 0.9% SALINE ADMINISTERED 30 MIN PRIOR TO CARCINOGEN DOSE (STUDY DURATION: 12 MO), Route [Inhibitor]: INTRAPERITONEAL, Species: MOUSE, Strain/Sex: B6C3F1/FEMALE, Target Tissue: Type of Lesion: LIVER: HEPATOMA, Dose [Carcinogen]: 0.5 MG/G ONCE) 68%, 19%, 72%, not calculated; (Carcinogen: ETHYL CARBAMATE, 51-79-6, 0.5 MG/G IN 0.01 ML OF 0.9% SALINE ADMINISTERED 30 MIN PRIOR TO CARCINOGEN DOSE (STUDY DURATION: 12 MO), Route [Inhibitor]: INTRAPERITONEAL, Species: MOUSE, Strain/Sex: B6C3F1/FEMALE, Target Tissue: Type of Lesion: LUNG: ADENOMA, Dose [Carcinogen]: 0.5 MG/G ONCE) 48%, 12%, 75%, not calculated; (Carcinogen: VINYL CARBAMATE, 15805-73-9, 0.25 MG/G IN 0.005 ML OF 0.9% SALINE ADMINISTERED 30 MIN PRIOR TO CARCINOGEN DOSE (STUDY DURATION: 26 WK), Route [Inhibitor]: INTRAPERITONEAL, Species: MOUSE, Strain/Sex: STRAIN-A/FEMALE, Target Tissue: Type of Lesion: LUNG: ADENOMA, Dose [Carcinogen]: 0.025 MG/G ONCE) 100%, 100%, 0%, not calculated; (Carcinogen: VINYL CARBAMATE, 15805-73-9, 0.5 MG/G IN 0.005 ML OF 0.9% SALINE ADMINISTERED 30 MIN PRIOR TO CARCINOGEN DOSE (STUDY DURATION: 26 WK), Route [Inhibitor]: INTRAPERITONEAL, Species: MOUSE, Strain/Sex: STRAIN-A/FEMALE, Target Tissue: Type of Lesion: LUNG: ADENOMA, Dose [Carcinogen]: 0.025 MG/G ONCE) 100%, 100%, 0%, not calculated; (Carcinogen: VINYL CARBAMATE, 15805-73-9, 0.5 MG/G IN 0.01 ML OF 0.9% SALINE ADMINISTERED 30 MIN PRIOR TO CARCINOGEN DOSE (STUDY DURATION: 7 MO), Route [Inhibitor]: INTRAPERITONEAL, Species: MOUSE, Strain/Sex: B6C3F1/MALE, Target Tissue: Type of Lesion: LIVER: HEPATOMA, Dose [Carcinogen]: 0.025 MG/G ONCE) 24/24 (100%), 29/29 (100%), 0%, not calculated. The “tumour outcome (control, treated, inhibition, significance)” value is on record as 29/29 (100%), 27/27 (100%), 0%, not calculated (Carcinogen: VINYL CARBAMATE, 15805-73-9, 0.5 MG/G IN 0.01 ML OF 0.9% SALINE ADMINISTERED 30 MIN PRIOR TO CARCINOGEN DOSE (STUDY DURATION: 8 MO), Route [Inhibitor]: INTRAPERITONEAL, Species: MOUSE, Strain/Sex: B6C3F1/MALE, Target Tissue: Type of Lesion: LIVER: HEPATOMA, Dose [Carcinogen]: 0.003 MG/G ONCE); 23/23 (100%), 27/27 (100%), 0%, not calculated (Carcinogen: VINYL CARBAMATE, 15805-73-9, 0.5 MG/G IN 0.01 ML OF 0.9% SALINE ADMINISTERED 30 MIN PRIOR TO CARCINOGEN DOSE (STUDY DURATION: 8 MO), Route [Inhibitor]: INTRAPERITONEAL, Species: MOUSE, Strain/Sex: B6C3F1/MALE, Target Tissue: Type of Lesion: LIVER: HEPATOMA, Dose [Carcinogen]: 0.008 MG/G ONCE); 68%, 22%, 68%, not calculated (Carcinogen: VINYL CARBAMATE, 15805-73-9, 0.5 MG/G IN 0.01 ML OF 0.9% SALINE ADMINISTERED 30 MIN PRIOR TO CARCINOGEN DOSE (STUDY DURATION: 12 MO), Route [Inhibitor]: INTRAPERITONEAL, Species: MOUSE, Strain/Sex: B6C3F1/FEMALE, Target Tissue: Type of Lesion: HARDERIAN GLAND: TUMOR, Dose [Carcinogen]: 0.025 MG/G ONCE); 96%, 30%, 69%, not calculated (Carcinogen: VINYL CARBAMATE, 15805-73-9, 0.5 MG/G IN 0.01 ML OF 0.9% SALINE ADMINISTERED 30 MIN PRIOR TO CARCINOGEN DOSE (STUDY DURATION: 12 MO), Route [Inhibitor]: INTRAPERITONEAL, Species: MOUSE, Strain/Sex: B6C3F1/FEMALE, Target Tissue: Type of Lesion: LIVER: HEPATOMA, Dose [Carcinogen]: 0.025 MG/G ONCE); 54%, 9%, 83%, not calculated (Carcinogen: VINYL CARBAMATE, 15805-73-9, 0.5 MG/G IN 0.01 ML OF 0.9% SALINE ADMINISTERED 30 MIN PRIOR TO CARCINOGEN DOSE (STUDY DURATION: 12 MO), Route [Inhibitor]: INTRAPERITONEAL, Species: MOUSE, Strain/Sex: B6C3F1/FEMALE, Target Tissue: Type of Lesion: LUNG: ADENOMA, Dose [Carcinogen]: 0.025 MG/G ONCE).

In the case of `CN1[C@@H]2CC[C@H]1CC(OC(=O)C(CO)c1ccccc1)C2` (some centres undefined), the “tumour outcome (control, treated, inhibition, significance)” value (Carcinogen: N-METHYL-N'-NITRO-N-NITROSOGUANIDINE, 70-25-7, 0.5 MG/KG IN OLIVE OIL SUSPENSION 1/D BEGINNING 1 WK POST LAST CARCINOGEN DOSE AND CONTINUING FOR DURATION OF STUDY (, Species: RAT, Strain/Sex: WISTAR/MALE, Target Tissue: Type of Lesion: GLANDULAR STOMACH: ADENOCARCINOMA, Dose [Carcinogen]: 50 UG/ML IN DRINKING WATER FOR 25 WK) is on record as 15/18 (83%), 15/19 (79%), 5%, not calculated.

Consider `NCCCCN`, for which, where the note is “Carcinogen: AZOXYMETHANE, 25843-45-2, 300 UMOL/KG IN 0.9% SALINE 1/2 D FOR THE DURATION OF STUDY (STUDY DURATION: 40 WK), Route [Inhibitor]: INTRAPERITONEAL, Species: RAT, Strain/Sex: WISTAR/MALE, Target Tissue: Type of Lesion: COLON: TUMOR, Dose [Carcinogen]: 7.4 MG/KG IN 0.9% SALINE 1/WK FOR 10 WK”, the “tumour outcome (control, treated, inhibition, significance)” value is recorded as 16/20 (80%), 6/18 (33%), 59%, p<0.01.
